Measured values as given in ChEMBL document CHEMBL1127878, “Substituted lactam biphenyltetrazoles as angiotensin II mediated antihypertensives” (Bioorg Med Chem Lett, 1994).

Key:
[1] = target: T1, Type-1 angiotensin II receptor (Oryctolagus cuniculus, UniProt P34976); experiment: In vitro binding affinity against Angiotensin II receptor in rabbit aorta rings; format: tissue-based; details: read-out: pA2 (converted)
T1 sequence (P34976 whole entry): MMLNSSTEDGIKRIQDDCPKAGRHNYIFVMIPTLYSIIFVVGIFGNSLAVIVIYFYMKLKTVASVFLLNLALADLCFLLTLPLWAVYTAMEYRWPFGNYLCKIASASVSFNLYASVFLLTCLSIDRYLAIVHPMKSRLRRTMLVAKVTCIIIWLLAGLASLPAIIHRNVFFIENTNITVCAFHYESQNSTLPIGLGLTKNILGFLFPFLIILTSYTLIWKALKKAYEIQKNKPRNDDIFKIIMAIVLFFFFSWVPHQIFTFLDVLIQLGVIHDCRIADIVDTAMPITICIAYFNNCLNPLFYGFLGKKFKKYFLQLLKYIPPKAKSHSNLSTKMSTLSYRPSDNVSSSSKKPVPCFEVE

Rattus norvegicus [2] = experiment: Tested for percent of maximal blood pressure drop in high renin rat after peroral administration of 30 mg/kg of dose; format: functional; details: route oral
Rattus norvegicus [3] = experiment: Tested for total duration time(BP) after peroral administration of 30 mg/kg of dose in spontaneously hypertensive rat; format: functional; details: route oral
Rattus norvegicus [4] = experiment: Tested for total onset time(BP) after peroral administration of 30 mg/kg of dose in spontaneously hypertensive rat; format: functional; details: route oral
Rattus norvegicus [5] = experiment: Tested for percent of maximal blood pressure drop after peroral administration of 30 mg/kg in spontaneously hypertensive rat; format: functional; details: route oral
Rattus norvegicus [6] = experiment: Dose (iv) required for graded reduction in mean arterial blood pressure in spontaneously hypertensive rat (also, 10 mg/kg); format: functional
Rattus norvegicus [7] = experiment: Tested for total duration time(BP) after peroral administration of 30 mg/kg of dose in high renin rat; format: functional; details: route oral
Rattus norvegicus [8] = experiment: Tested for total onset time(BP) after peroral administration of 30 mg/kg of dose in high renin rat; format: functional; details: route oral

Structure (SMILES) | Kb [1] [nM] | Max drop (Rattus norvegicus [2]) [%] | Duration (Rattus norvegicus [3]) [h] | Onset (Rattus norvegicus [4]) [h] | Max drop (Rattus norvegicus [5]) [%] | Max drop (Rattus norvegicus [2]; 30 mg/kg) [%] | Duration (Rattus norvegicus [3]; 30 mg/kg) [h] | Onset (Rattus norvegicus [4]; 30 mg/kg) [h] | Max drop (Rattus norvegicus [5]; 30 mg/kg) [%] | Dose (Rattus norvegicus [6]) [mg/kg] | Duration (Rattus norvegicus [7]) [h] | Onset (Rattus norvegicus [8]) [h] | Duration (Rattus norvegicus [7]; 30 mg/kg) [h] | Onset (Rattus norvegicus [8]; 30 mg/kg) [h]
CCOC(=O)/C=C1\CC(C)(C(C)C)CC(=O)N1Cc1ccc(-c2ccccc2-c2nn[nH]n2)cc1 (configuration not stated) | 15.8 | 70 | 5 | 1.25 | 70 |  |  |  |  |  |  |  |  | 
CCOC(=O)/C=C1\CC(CC)(CC)CC(=O)N1Cc1ccc(-c2ccccc2-c2nn[nH]n2)cc1 (stereo in doubt; 11) | 3.98 |  |  |  |  | 35 | 15 | 0.75 | 35 |  |  |  |  | 
CCOC(=O)/C=C1\CC(C)(CC)CC(=O)N1Cc1ccc(-c2ccccc2-c2nn[nH]n2)cc1 (stereo in doubt; 9) | 1 |  |  |  |  | 100 | 24 | 0.25 | 100 | 3 | <24 | 0.25 |  | 
CCOC(=O)/C=C1\CC2(CCCC2)CC(=O)N1Cc1ccc(-c2ccccc2-c2nn[nH]n2)cc1 | 12.6 | 46 |  |  |  |  |  |  |  |  | 21 | 2.5 |  | 
CCOC(=O)/C=C1\C2C3CCC(C3)C2C(=O)N1Cc1ccc(-c2ccccc2-c2nn[nH]n2)cc1 (configuration not stated) | 1 | 26 |  |  |  |  |  |  |  |  | 17 | 1 |  | 
CCOC(=O)/C=C1\CC2(CCCCC2)C(=O)N1Cc1ccc(-c2ccccc2-c2nn[nH]n2)cc1 | 12.6 | 26 |  |  |  |  |  |  |  |  | 17 | 1 |  | 
CCOC(=O)/C=C1\CC2(CCCCC2)CC(=O)N1Cc1ccc(-c2ccccc2-c2nn[nH]n2)cc1 | 5.01 | 100 | 8 | 0.25 | 100 |  |  |  |  |  |  |  |  | 
CCOC(=O)/C=C1\CC(CC)(CC)CC(=O)N1Cc1ccc(-c2ccccc2-c2nn[nH]n2)cc1 (stereo in doubt; 16) | 7.94 |  |  |  |  | 100 | 24 | 0.25 | 100 |  |  |  |  | 
CCOC(=O)/C=C1\C2C3C=CC(CC3)C2C(=O)N1Cc1ccc(-c2ccccc2-c2nn[nH]n2)cc1 (stereo in doubt; 7) | 10 |  | 13 | 1 | 86 | 43 |  |  |  |  |  |  | 10 | 0.25
CCOC(=O)/C=C1\C2C3C=CC(CC3)C2C(=O)N1Cc1ccc(-c2ccccc2-c2nn[nH]n2)cc1 (stereo in doubt; 5) | 6.31 |  |  |  |  | 29 |  |  |  |  |  |  | 17 | 1.75
CCOC(=O)/C=C1\C2C3C=CC(CCC3)C2C(=O)N1Cc1ccc(-c2ccccc2-c2nn[nH]n2)cc1 (configuration not stated) | 20 | 96 | 24 | 0.25 | 96 |  |  |  |  |  |  |  |  | 
CCCCc1nc(Cl)c(CO)n1Cc1ccc(-c2ccccc2-c2nnn[nH]2)cc1 [LOSARTAN] |  | 100 | 24 | 2 | 100 |  |  |  |  |  | 24 | 2 |  | 
CCCC1(CC)CC(=O)N(Cc2ccc(-c3ccccc3-c3nn[nH]n3)cc2)/C(=C/C(=O)OCC)C1 (configuration not stated) | 12.6 | 18 | 6 | 3 | 18 |  |  |  |  |  |  |  |  | 
CCOC(=O)/C=C1\CC(C)(CC)CC(=O)N1Cc1ccc(-c2ccccc2-c2nn[nH]n2)cc1 (stereo in doubt; 13) | 2.51 |  |  |  |  | 58 | 16 | 0.5 | 58 |  |  |  |  | 
CCOC(=O)/C=C1\CC2(CCCC2)C(=O)N1Cc1ccc(-c2ccccc2-c2nn[nH]n2)cc1 | 3.16 | 20 |  |  |  |  |  |  |  |  | 3 | 2 |  | 
CCCCC1(C)CC(=O)N(Cc2ccc(-c3ccccc3-c3nn[nH]n3)cc2)/C(=C/C(=O)OCC)C1 (configuration not stated) | 31.6 | 98 | 24 | 0.5 | 98 |  |  |  |  |  |  |  |  | 
CCCCC1(CC)CC(=O)N(Cc2ccc(-c3ccccc3-c3nn[nH]n3)cc2)/C(=C/C(=O)OCC)C1 (configuration not stated) | 100 | 55 | 8 | 0.25 | 55 |  |  |  |  |  |  |  |  | 
CCOC(=O)/C=C1\CC2(CCCCCC2)C(=O)N1Cc1ccc(-c2ccccc2-c2nn[nH]n2)cc1 | 3.98 | 31 | 16 | 1.5 | 80 |  |  |  |  |  | 23 | 0.75 |  | 
CCOC(=O)/C=C1\CC(C)(C)CC(=O)N1Cc1ccc(-c2ccccc2-c2nn[nH]n2)cc1 | 39.8 | 17 |  |  |  |  |  |  |  |  | 5 | 2 |  | 
